Measured values reported in the OPERA property sets (Mansouri et al. 2018).

Row | Structure (SMILES) | logP
1 | Cn1nc2ccc(NC(=O)c3ccc([N+](=O)[O-])cc3)cc2n1 | 2.53
2 | O=C(Nc1ccc2nn(C3CCCCC3)nc2c1)c1ccc(Cl)c(Cl)c1 | 5.85
3 | O=C(Nc1ccc2nn(C3CCCCC3)nc2c1)c1ccc([N+](=O)[O-])cc1 | 4.57
4 | COc1cc(C(=O)Nc2ccc3nn(C)nc3c2)cc(OC)c1OC | 2.38
5 | Cn1nc2ccc(NC(=O)c3ccccc3)cc2n1 | 2.44
6 | COc1ccc(C(=O)Nc2ccc3nn(C4CCCC4)nc3c2)cc1 | 4.03
7 | O=C(Nc1ccc2nn(C3CCCCC3)nc2c1)C(Cl)Cl | 3.87
8 | O=C(Nc1ccc2nn(C3CCCCC3)nc2c1)c1ccccc1 | 4.45
9 | Cn1nc2ccc(NC(=O)CCl)cc2n1 | 1.22
10 | COc1cc(C(=O)Nc2ccc3nn(C4CCCCC4)nc3c2)cc(OC)c1OC | 4.45
11 | Cn1nc2ccc(NC(=O)c3ccc(Cl)cc3)cc2n1 | 3.13
